Test results as given in patent publication US20230373929A1, “FUSED RING DIIMIDE DERIVATIVE, PREPARATION METHOD AND USE THEREOF” (XIANGBEI WELMAN PHARMACEUTICAL CO., LTD., priority 2020, published 2023).
Read-outs that look alike come from different tables or passages of the source.

How the values were obtained:
[1] = test system: human colon cancer cells HT-29; assay: anti-proliferative activity against tumor cells, resazurin (Alamar blue) assay, HT-29; type: cell-based; settings: read-out: IC50 Grades of Inhibitory Effects of Compounds on Tumor Cells, HT-29
Method: (§1) Objective: To test the anti-proliferative activity of the compound of the present disclosure against various tumor cells.
(§2) Test cells: human colon cancer cells (HT-29, COLO 205), human lung cancer cells (NCI-H460, A549) and human leukemia cells (HL-60, U-937).
(§3) Test method: each tumor cell was tested separately. Cells were incubated in medium at […] for 24 hours before use. The cells growing in an exponential growth phase were harvested and treated with trypsin to prepare a cell suspension, the cell suspension was centrifuged, then the cell pellet was resuspended in a small amount of fresh medium as a cell stock. The cell stock was diluted to required cell concentrations.
(§4) The test was carried out on 96-well plates; blank control groups, cell control groups and compound treatment groups were set up. In the blank control groups, only 10% PBS was added to each well, while in the cell control groups and the compound treatment groups, 100 μL of cells at the above concentration were added to each well, and then each well was filled with 200 μL of 10% PBS. The plates were placed in an incubator overnight. In the compound treatment groups, 100 μL of each test compound at different dilution concentrations was added to each well, the dilution concentrations of the compounds are as shown in Table 2.
(§5) After the addition of the drug to each well was completed, the plates were cultured in an incubator for 96 hours, 22 μL of resazurin sodium solution (Alarm blue, SIGMA R7017) was added to each well. The plates were returned to the incubator for another 4 hours of incubation and then shaken for 10 seconds after being taken out. The fluorescence value of each well were recorded at 530/590 nm.
(§6) The above operations were repeated three times.
(§7) The IC50 value of each test compound was calculated by Prism7 software. IC50 was divided into different grades according to values, that is, SS: <1 μM; S: 1-5 μM; A: 5-10 μM; B: 11-20 μM; C: 21-50 μM; D: 51-100 μM; E: >100 μM.

[2] = test system: human colon cancer cells COLO 205; assay: anti-proliferative activity against tumor cells, resazurin assay, COLO 205; type: cell-based; settings: read-out: IC50 Grades of Inhibitory Effects of Compounds on Tumor Cells, COLO205
Method: as §1, §2, §3, §4, §5, §6, §7

[3] = test system: human lung cancer cells NCI-H460; assay: anti-proliferative activity against tumor cells, resazurin assay, NCI-H460; type: cell-based; settings: read-out: IC50 Grades of Inhibitory Effects of Compounds on Tumor Cells, NCI-H460
Method: as §1, §2, §3, §4, §5, §6, §7

[4] = test system: human lung cancer cells A549; assay: anti-proliferative activity against tumor cells, resazurin assay, A549; type: cell-based; settings: read-out: IC50 Grades of Inhibitory Effects of Compounds on Tumor Cells, A549
Method: as §1, §2, §3, §4, §5, §6, §7

[5] = test system: human leukemia cells HL-60; assay: anti-proliferative activity against tumor cells, resazurin assay, HL-60; type: cell-based; settings: read-out: IC50 Grades of Inhibitory Effects of Compounds on Tumor Cells, HL-60
Method: as §1, §2, §3, §4, §5, §6, §7

[6] = test system: human leukemia cells U-937; assay: anti-proliferative activity against tumor cells, resazurin assay, U-937; type: cell-based; settings: read-out: IC50 Grades of Inhibitory Effects of Compounds on Tumor Cells, U-937
Method: as §1, §2, §3, §4, §5, §6, §7

[7] = test system: tumor cells; assay: anti-proliferative activity, overall comparison over all tumor cells; type: cell-based, human; settings: all tested tumor cells, under the test condition of the present disclosure
Method: as §1, §2, §3
(§8) The test was carried out on 96-well plates; blank control groups, cell control groups and compound treatment groups were set up. In the blank control groups, only 10% PBS was added to each well, while in the cell control groups and the compound treatment groups, 100 μL of cells at the above concentration were added to each well, and then each well was filled with 200 μL of 10% PBS. […]
(§9) After the addition of the drug to each well was completed, the plates were cultured in an incubator for 96 hours, 22 μL of resazurin sodium solution (Alarm blue, SIGMA R7017) was added to each well. […] The fluorescence value of each well were recorded at 530/590 nm.
(§10) The IC50 value of each test compound was calculated by Prism7 software. […]

[8] = test system: colon cancer cells; assay: anti-proliferative activity, colon cancer cells; type: cell-based, human; settings: versus similar compounds (Compound 1d, Compound 1)
Method: as §1, §2, §3, §8, §9, §10

[9] = Homo sapiens, HT-29, 96 hours culture, resazurin fluorescence 530/590 nm
[10] = Homo sapiens, COLO 205, COLO205, 96 hours culture, resazurin fluorescence 530/590 nm
[11] = Homo sapiens, NCI-H460, 96 hours culture, resazurin fluorescence 530/590 nm
[12] = Homo sapiens, A549, 96 hours culture, resazurin fluorescence 530/590 nm
[13] = Homo sapiens, HL-60, 96 hours culture, resazurin fluorescence 530/590 nm
[14] = Homo sapiens, U-937, 96 hours culture, resazurin fluorescence 530/590 nm

SMILES	IC50 [1, 9]	IC50 [2, 10]	IC50 [3, 11]	IC50 [4, 12]	IC50 [5, 13]	IC50 [6, 14]	IC50 ([1]; Homo sapiens, HT-29, 96 h)	IC50 ([2]; Homo sapiens, COLO 205, 96 h)	IC50 ([3]; Homo sapiens, NCI-H460, 96 h)	IC50 ([4]; Homo sapiens, A549, 96 h)	IC50 ([5]; Homo sapiens, HL-60, 96 h)	IC50 ([6]; Homo sapiens, U-937, 96 h)	further results
CN(C)CCN1C(=O)c2cccc3cc(N)cc(c23)C1=O [Amonafide, reference compound]	11 to 20 µM	5 to 10 µM	11 to 20 µM	1 to 5 µM	5 to 10 µM	11 to 20 µM							
O=NN(CCCl)C(=O)NCCN1C(=O)c2cccc3cc([N+](=O)[O-])cc(c23)C1=O [Compound 1, reference compound]							21 to 50 µM	21 to 50 µM	11 to 20 µM	5 to 10 µM	11 to 20 µM	21 to 50 µM	overall anti-tumor activity, comparison in words [7]: inferior to that of Amonafide
O=NN(CCCl)C(=O)NCCCCN1C(=O)c2cccc3cccc(c23)C1=O [Compound 1d, reference compound]							21 to 50 µM	21 to 50 µM	51 to 100 µM	21 to 50 µM	21 to 50 µM	11 to 20 µM	overall anti-tumor activity, comparison in words [7]: inferior to that of Amonafide
O=C(NCCNCCCCN1C(=O)c2cccc3cccc(c23)C1=O)N(CCl)CCl [Compound I-01]							1 to 5 µM	1 to 5 µM	5 to 10 µM	1 to 5 µM	5 to 10 µM	1 to 5 µM	
O=C(OCCOCCCCN1C(=O)c2cccc3cccc(c23)C1=O)N(CCl)CCl [Compound I-02]													IC50 ([1]; HT-29, 96 hours culture, resazurin fluorescence 530/590 nm): 5 to 10 µM; IC50 ([2]; COLO205, 96 hours culture, resazurin fluorescence 530/590 nm): 5 to 10 µM; IC50 ([3]; NCI-H460, 96 hours culture, resazurin fluorescence 530/590 nm): 5 to 10 µM; IC50 ([4]; A549, 96 hours culture, resazurin fluorescence 530/590 nm): 5 to 10 µM; IC50 ([5]; HL-60, 96 hours culture, resazurin fluorescence 530/590 nm): 5 to 10 µM; IC50 ([6]; U-937, 96 hours culture, resazurin fluorescence 530/590 nm): 5 to 10 µM
O=NN(CCCl)C(=O)NCNCCN1C(=O)c2cccc3cc([N+](=O)[O-])cc(c23)C1=O [Compound I-03]							1 to 5 µM	< 1 µM	5 to 10 µM	1 to 5 µM	1 to 5 µM	5 to 10 µM	activity relative to that of similar compounds [8]: 50 times
O=NN(CCCl)C(=O)NCCNCCCCN1C(=O)c2cccc3cccc(c23)C1=O [Compound I-04]							< 1 µM	1 to 5 µM	5 to 10 µM	5 to 10 µM	1 to 5 µM	1 to 5 µM	activity relative to that of similar compounds [8]: 50 times
CON(C)C(=O)N(C)CCCCNCCN1C(=O)c2cccc3c(N(C)C)ccc(c23)C1=O [Compound I-05]	1 to 5 µM	1 to 5 µM	5 to 10 µM	5 to 10 µM	5 to 10 µM	5 to 10 µM							
COc1ccc2cc3c(cc2c1)C(=O)N(COCCN(OC)C(=O)N(C)C)C3=O [Compound I-08]	11 to 20 µM	5 to 10 µM	5 to 10 µM	5 to 10 µM	5 to 10 µM	5 to 10 µM							
CN(C)C(=O)NCCN(CCCN1C(=O)c2cccc3cc4ccccc4c(c23)C1=O)[N+](=O)[O-] [Compound I-10]	5 to 10 µM	1 to 5 µM	1 to 5 µM	5 to 10 µM	1 to 5 µM	5 to 10 µM							
CCSC(=O)OCCCCOCN1C(=O)c2cccc3c(C)c4ccccc4c(c23)C1=O [Compound I-12]	5 to 10 µM	5 to 10 µM	5 to 10 µM	5 to 10 µM	11 to 20 µM	11 to 20 µM							
CCN(C)C(=O)NCCN(CCN1C(=O)c2cccc3c2c(cc2ccccc23)C1=O)OC [Compound I-15]	1 to 5 µM	5 to 10 µM	1 to 5 µM	5 to 10 µM	5 to 10 µM	1 to 5 µM							
CN(N=O)C(=O)NCCCCCCNCN1C(=O)c2cccc3c2c(cc2ccc(C#N)cc23)C1=O [Compound I-17]	1 to 5 µM	5 to 10 µM	1 to 5 µM	1 to 5 µM	5 to 10 µM	1 to 5 µM							
CC(C)(C)OC(=O)N1CCN(CCCN2C(=O)c3ccc4c5cccc6c(Br)ccc(c7ccc(c3c47)C2=O)c65)CC1 [Compound I-18]	5 to 10 µM	11 to 20 µM	5 to 10 µM	5 to 10 µM	5 to 10 µM	11 to 20 µM							
CONC(=O)NCCN(CCCCN1C(=O)c2cccc3c2c(cc2ccoc23)C1=O)OC [Compound I-20]	5 to 10 µM	5 to 10 µM	5 to 10 µM	1 to 5 µM	5 to 10 µM	5 to 10 µM							
